Data: patent publication US20240342190A1, “METHODS FOR REDUCING ISCHEMIA-REPERFUSION INJURIES” (BioMimetix JV, LLC, priority 2023, published 2024)

Assays:
[1] = system: young male Wistar rats subjected to 90 min of MCAO (ischemic stroke); assay: Experiment 3: duration of BMX-001 treatment and long-term stroke outcome in young male rats; format: in vivo, rat; conditions: for MAP: 10 minutes post-stroke; for Neurologic score: median±IQR; for Body weight: p=0.37; for Total infarct: measured at 28 days, p=0.46
Description: The rats were fasted overnight for glucose control. On the surgery day, they were anesthetized with 5% isoflurane in 30% oxygen balanced with nitrogen. The trachea was orally intubated, and both lungs were mechanically ventilated to maintain normocapnia. Isoflurane was reduced to 1.5% during the surgical procedure. A 22-gauge needle thermistor was percutaneously inserted beneath the temporalis muscle adjacent to the skull. The pericranial temperature was maintained at 37.0° C.±0.2° C. by a surface heat lamp. The tail artery was cannulated with PE 50 tubing (BD Intramedic™ Polyethylene Tubing, Sparks, MD, USA), and arterial blood pressure was continuously monitored. 50 IU of heparin was given via arterial line to prevent intra-arterial thrombosis. Arterial blood samples were collected pre, during, and after ischemia for blood gas, glucose, and hematocrit measurements.
Ischemic stroke was induced by transiently occluding the middle cerebral artery (MCAO) as previously reported.^23,24 Briefly, a midline cervical incision was made and the right common carotid artery […] was identified. The external and internal carotid arteries were dissected. […] The internal carotid artery (ICA) was dissected distally until the origin of the pterygopalatine artery was visualized. After surgical preparation, a 10 min interval was allowed for physiologic stabilization. […] The common carotid artery was re-opened, and a timer was started as the onset of cerebral ischemia.
After 90 min of MCAO, the filament was removed and a PE-10 tube (BD Intramedic™ Polyethylene Tubing, Sparks, MD, USA) was inserted into the ICA beyond the origin of the pterygopalatine artery. The vehicle or BMX-001 (30-50 μg/kg) solution (1 μl/g for both solutions, 250 μl for the 250 g rat) was slowly infused for 5 minutes via syringe pump. At the completion of intra-carotid infusion, the PE tube was removed and the ECA stump was permanently ligated. The tail artery catheter was removed and both the neck incision and tail incision were infiltrated with bupivacaine and closed with suture. Isoflurane was discontinued. Rats were disconnected from the ventilator when they attained spontaneous respiration and kept in a recovery cage. The tracheas were extubated after recovery of the righting reflex. They were in an O2 enriched environment (30% O2) for 1 h and then returned to the home cage.
Post-stroke neurologic deficits were assessed at day 7 and 28 using a standardized neurological scoring system.^27,28 General status, simple motor deficit, complex motor deficit, and sensory deficit were evaluated, including the ability of walking on a beam and climbing on the vertical screen. The total score each animal received was the sum of all four individual scores (0-48, 0=normal and 48=the worst score).
Upon the completion of functional tests, the animals were weighed, anesthetized with isoflurane, and decapitated. The brains were harvested, frozen at −20° C. in 2-methylbutane on dry ice, and stored in a −80° C. freezer. Serial quadruplicate 20-μm-thick coronal sections were cut using a Leica cryostat and mounted on the slides at 720-μm interval over the rostral-caudal extent of the brain. The sections were dried on a slide heater at 36° C., and stained with hematoxylin and eosin. A section from each […] interval was digitized with a video camera controlled by an image analyzer (MCID, the MicroComputer Imaging Device, Imaging Research Inc, St. Catharines, Ontario, Canada). […] With the observer blinded to the experimental condition, the following regions of interest (ROI) were outlined individually using an operator-controlled cursor, including non-infarcted ipsilateral cerebral cortex, non-infarcted ipsilateral subcortex, contralateral cerebral cortex, and contralateral subcortex. The area in each ROI (mm^2) was determined by automated counting of calibrated pixels and the volume (mm^3) was computed by the known interval between sections over the rostral-caudal extent of brain. […]

[2] = Experiment 8: interaction of BMX-001 with t-PA (blood clot dissolution); parameters: species or system rat; conditions: blood clot dissolution, t-PA vs t-PA plus BMX-001
Description: Fresh arterial blood samples were collected from young male rats and distributed into 21 pre-weighed centrifuge tubes. After sitting at 37° C. for 3 hours, the blood clots were formed. The supernatant was removed from these tubes and then the tubes with blood clots were weighed. The weight of the blood clot was calculated (=the tube with blood clot-pre-weighed tube). Then, 1 ml saline, t-PA (1 mg/ml) or t-PA (1 mg/ml) plus BMX-001 (50 μg/ml) were added (n=7 for each group) and tubes placed in 37° C. dry incubator for 3 hours. The liquids were then removed from the tubes. The tubes with remaining blood clots were weighed again. The percentage of blood clot dissolved by t-PA was calculated.

[3] = Experiment 6: BMX-001 plasma and brain concentration measurement (LC/MS/MS); format: in vivo, rat
Description: Young male Wistar rats (n=4) were subjected to 90 min of MCAO and 30 μg/kg of BMX-001 intra-carotid infusion following reperfusion. Blood and brain samples were harvested at 30 min after BMX-001 infusion, stored in −80° C. freezer, and measured using Liquid chromatography-tandem-mass spectroscopy (LC/MS/MS) analysis. Brain tissue was homogenized in water (1 g in 2 mL water). Then, […] or […], two Zr-silica beads (2.5 mm), […] 1% HFBA (heptafluorobutyric acid) in 30% acetonitrile/water+BMX-001-d8 (int. std.,50 nM), and […] of chloroform/isopropanol (4/1, v/v) was added to polypropylene tube and vigorously agitated in FastPrep (Thermo Savant) at speed 6 for 45 s, followed by centrifugation at 16,000 rcf for 5 min at room temperature. The […] aliquot of organic (lower) layer was transferred to polypropylene tube and evaporated to dryness by gentle stream of nitrogen. The dry residue was reconstituted into […] of mobile phase A, and […] injected into LC/MS/MS system. The LC/MS/MS analysis was performed on Agilent 1200 HPLC-AB/SCIEX 5500 QTrap MS/MS instrument. LC column: Phenomenex Kinetex 4×3 mm, C18 guard cartridge at 35° C.; mobile phase A: 0.05% HFBA, 10% acetonitrile, water; mobile phase B: 0.05% HFBA in acetonitrile; elution gradient: 0-1 min 0-70% B, 1-2 min 70% B, 2-2.1 min 70-100% B, 2.1-2.6 min 100% B, 2.6-2.7 min 100-0% B; run time: 4 min. MS/MS transitions: BMX-001 (3×HFBA) at m/z 857.3/599.7. Calibration samples in 2.4 (LOQ)—300 nM brain tissue or 0.47 (LOQ)—30 nM plasma concentration range were prepared by adding known amounts of BMX-001 into blank brain homogenate or plasma, and analyzed alongside study samples as a single analytical batch.

[4] = printed 'on day 28 in BMX-001 group'
[5] = 30 μg/kg intracarotid after 90 min MCAO, 30 min after infusion, n=4

For `CCCCOCC[n+]1ccccc1C1=C2C=CC3=[N+]2[Mn]24[n]5c1ccc5C(c1cccc[n+]1CCOCCCC)=C1C=CC(=[N+]12)C(c1cccc[n+]1CCOCCCC)=c1ccc([n]14)=C3c1cccc[n+]1CCOCCCC` [BMX-001, MnTnBuOE-2-PyP^5+], the MAP ([1]; group BMX-001 for 7 days) was 67 ± 5 mmHg, the MAP ([1]; group BMX-001 for 28 days) was 71 ± 6 mmHg and the “Neurological deficits (FIG. 3, Panel B), in words” value ([1]; both day 7 and day 28 post-stroke) was “significantly improved”. The Neurologic score ([1]; day 7 post-stroke, 7 days of BMX-001 group) was 10±8, the Neurologic score ([1]; day 7 post-stroke, 28 days of BMX-001 group) was 11±8 and the Body weight ([1]; day 7 post-stroke, printed 'on day 7 in BMX-001 group') was 276±46 grams. The “Infarct volume (FIG. 3, Panel C), in words” value ([1]; day 28) was “no intra-group difference”, the Neurologic score ([1]; day 28 post-stroke, 7 days of BMX-001) was 6±5 and the Neurologic score ([1]; day 28 post-stroke, 28 days of BMX-001) was 6±4. It also gave a Total infarct ([1]; 7 days of BMX-001 group) of 131±66 mm^3, a Total infarct [1, 4] of 112±64 mm^3 and a Body weight [1, 4] of 280±33 grams. The “Interaction of BMX-001 with t-PA, in words” value [2] was “does not React with t-PA”, the “BMX-001 content in contralateral brain hemisphere” value [3, 5] was 0.5 ± 0.3 nM and the “BMX-001 content in ipsilateral brain hemisphere” value [3, 5] was 7.4 ± 8.6 nM. For the same compound, the “BMX-001 content in plasma” value [3, 5] was 11.3 ± 1.2 nM and the “BMX-001 concentration at the site of brain injury relative to the contralateral hemisphere” value ([3]; direct intracarotid infusion) was 15 fold.
